Results on 12 compounds are retold here after patent US10765754B2, “Compositions and methods related to inhibition of respiratory syncytial virus entry” (priority 2015, dated 2020).

Starred links: 1 amine or outer side, 2 acyl side, 3 side chain; linkers in the order of their positions; H or OH if unused. Positions of bridges follow the written chain, without caps; N, C: chain ends. Non-standard residues stand in square brackets, D forms with d. Residues, ends and D or L forms follow the SMILES beside them. Chains are numbered I, II in the order given. No end group written: not given here. X1 = NCCOCCOCCOCCOCCOCCOCCOCCOCCOCCOCCOCCOCCOCCOCCOCCOCCOCCOCCOCCOCCOCCOCCOCCOCCOCCOCCOCCOCCC(=O)NC(CCC(=O)[*:1])(CCC(=O)[*:2])CCC(=O)[*:3]; X2 = CC(COCCC(=O)[*:1])(COCCC(=O)[*:2])COCCC(=O)[*:3]; PEG6 = NCCOCCOCCOCCOCCOCCOCCC(=O)O

As usually defined, the Kd is the constant that tells how readily two partners part at equilibrium. The low end stands for a tighter complex, the high end for a looser complex.

The target in assay [1] is T1, RSV-B/IZN45 (Human respiratory syncytial virus B, UniProt O36634).
T1 construct: N-trimer Mimics Synthesized; made in house; host or cells: chemical peptide synthesis
Put plainly: biochemical. Format: binding. An excerpt:
(§1) IZN45 N-trimer mimic comprises the IZ domain, a highly soluble, designed coiled-coil that helps solubilize the N-trimer, along with the C-terminal (bottom) 45 residues of the RSV N-trimer. IZN45 encompasses the full ordered portion of the N-trimer except for three N-terminal residues (removed to maintain a continuous heptad repeat with the IZ domain). The interactions between 35-residue RSV C-peptides, T108 and T118 (Lambert et al., 1996, Proc. Natl. Acad. Sci. USA 93:2186-2191), and IZN45 was examined by surface plasmon resonance (SPR). SPR is a gold standard assay to measure the kinetics and affinity of biological interactions. […] The Biotinylated L-form of RSV target IZN45 was captured onto one lane of a NeutrAvidin coated SPR chip. A mutant version of IZN45 containing four mutated residues along the N-trimer groove designed to disrupt binding (IZN45 Full Mut, negative control) was captured onto a separate lane of the NeutrAvidin chip. T118, corresponding to the C-terminal portion of the RSV F ectodomain, which is known to interact with the RSV N-trimer groove, was flowed over the various surfaces. […] The surfaces were regenerated with a detergent (0.1% SDS) after each injection of analyte. Various concentrations of T118 were measured in duplicate or triplicate injections. D-peptide interactions with IZN45 and IZN45-Full Mut surfaces were also measured using this method.
(§2) Peptides from the ‘winning’ phage clones from each library were synthesized as D-peptides. If solubility of the peptides was limited, N- or C-terminal charged residue(s) (e.g., lysine) were attached as necessary as previously described for HIV peptides in Eckert et al., 1999, Cell 99:103-15, incorporated by reference in its entirety. Binding affinity and kinetics of the D-peptide inhibitors to the IZN45 and IZN45 mutants was characterized by SPR (Biacore 3000), using methods as described in Welch et al., 2007, Proc. Natl. Acad. Sci. USA 104:16828-33, incorporated by reference in its entirety.

Assay [2] addresses T2, RSV-A/IZN45 (Human respiratory syncytial virus A, UniProt P03420).
T2 construct: N-trimer Mimics Synthesized; made in house; host or cells: chemical peptide synthesis
Nature of the assay: SPR binding to RSV-A IZN45 N-trimer mimic.
Source text: as §1, §2

The mark [3] stands for this setting: Kd, subsequent trimer/compound made from peptide, RSV-A/IZN45, SPR.
[4] abbreviates: Kd, synthesized peptide, RSV-A/IZN45, KD determined by SPR.
Setting [5] is: synthesized peptide, RSV-B/IZN45, KD determined by SPR.

T1 sequence (O36634 163-207, added parts left off): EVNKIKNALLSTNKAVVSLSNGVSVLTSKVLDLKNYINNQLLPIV
T2 sequence (P03420 163-207, added parts left off): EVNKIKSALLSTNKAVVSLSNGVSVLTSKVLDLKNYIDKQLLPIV

On to “I: Ac-[dK][PEG6]G[dA][dC][dT][dN][dR][dA][dE][dW][dL][dI][dD][dW][dC][dA][dA]-NH2 / II: Ac-[dK][PEG6]G[dA][dC][dT][dN][dR][dA][dE][dW][dL][dI][dD][dW][dC][dA][dA]-NH2 / III: Ac-[dK][PEG6]G[dA][dC][dT][dN][dR][dA][dE][dW][dL][dI][dD][dW][dC][dA][dA]-NH2 (linker I:1-II:1-III:1 via X1; disulfide I:5-I:16, II:5-II:16, III:5-III:16; C-terminus assumed) [Ac-K(PEG6)-RSVP21-trimer]”, for which the Kd in assay [1] (subsequent trimer/compound made from peptide, RSV-B/IZN45, SPR) came to 0.0018 µM; in assay [2] (setting [3]) it was 0.0003 µM.
In turn, “I: H-[dR][dW][dF][dE][dL][dP][dE][dP][dD][dW][dW]G[dK][PEG6][dK]G[dK]G-NH2 / II: H-[dR][dW][dF][dE][dL][dP][dE][dP][dD][dW][dW]G[dK][PEG6] / III: H-[dR][dW][dF][dE][dL][dP][dE][dP][dD][dW][dW]G[dK][PEG6] (amide I:15-II:C, I:17-III:C) [RSVP1-GK(PEG6)-Tricasso]” displayed a Kd in assay [2] (setting [4]) of around 0.02 µM.
Turning to “I: Ac-[dI][dS][dL][dP][dT][dP][dT][dW][dW][dP][dS][dT]GG[PEG6][dK]-NH2 / II: Ac-[dI][dS][dL][dP][dT][dP][dT][dW][dW][dP][dS][dT]GG[PEG6][dK]-NH2 / III: Ac-[dI][dS][dL][dP][dT][dP][dT][dW][dW][dP][dS][dT]GG[PEG6][dK]-NH2 (linker I:16-II:16-III:16 via X2; C-terminus assumed) [Ac-X12-45-GG(PEG6)K-trimer]”, the Kd turned out to be 0.066 µM in assay [1] (FIG. 10B, RSV-B version of IZN45); 0.049 µM in assay [2] (KD, FIG. 10A, RSV-A version of IZN45); 0.053 µM in assay [2] (setting [3]).
Take “I: H-[dK]G[dR][dW][dF][dE][dL][dP][dE][dP][dD][dW][dW]G[PEG6][dK]G[dK]G-NH2 / II: H-[dK]G[dR][dW][dF][dE][dL][dP][dE][dP][dD][dW][dW]G[PEG6] / III: H-[dK]G[dR][dW][dF][dE][dL][dP][dE][dP][dD][dW][dW]G[PEG6] (amide I:16-II:C, I:18-III:C) [KG-RSVP1-G(PEG6)-Tricasso]”: the Kd in assay [2] (setting [4]) was around 0.02 µM.
Take `CC[C@@H](C)[C@H]1NC(=O)[C@@H](CCCCN)NC(=O)[C@H](NC(=O)[C@@H](C)NC(=O)CN)CSSC[C@H](C(=O)N[C@H](C)C(=O)N[C@H](C)C(=O)NCC(=O)NCC(N)=O)NC(=O)[C@@H](CC(=O)O)NC(=O)[C@@H](Cc2c[nH]cn2)NC(=O)[C@@H](Cc2c[nH]c3ccccc23)NC(=O)[C@@H](Cc2c[nH]cn2)NC(=O)[C@@H](Cc2ccccc2)NC(=O)[C@@H](CC(C)C)NC(=O)[C@@H](CC(=O)O)NC(=O)[C@@H](Cc2c[nH]cn2)NC1=O` [CX10C-119-GG] (H-G[dA][dC][dK][dI][dH][dD][dL][dF][dH][dW][dH][dD][dC][dA][dA]GG-NH2; disulfide 3-14): in assay [1] (setting [5]), binding was characterised by a dissociation constant (Kd) of 130 µM.
In turn, `CC[C@@H](C)[C@@H](NC(C)=O)C(=O)N[C@H](CO)C(=O)N[C@H](CC(C)C)C(=O)N1CCC[C@@H]1C(=O)N[C@@H](C(=O)N1CCC[C@@H]1C(=O)N[C@@H](C(=O)N[C@H](Cc1c[nH]c2ccccc12)C(=O)N[C@H](Cc1c[nH]c2ccccc12)C(=O)N1CCC[C@@H]1C(=O)N[C@H](CO)C(=O)N[C@@H](C(=O)NCC(=O)N[C@H](CCCCN)C(N)=O)[C@H](C)O)[C@H](C)O)[C@H](C)O` [Ac-X12-45-GK] (Ac-[dI][dS][dL][dP][dT][dP][dT][dW][dW][dP][dS][dT]G[dK]-NH2) showed a Kd in assay [1] (setting [5]) of 23 µM. Compared with the last compound, the Kd is about 5.7-fold lower.
Same read-out and setting: the same measure for `CC[C@@H](C)[C@H]1NC(=O)[C@@H](CCCCN)NC(=O)[C@H](NC(=O)[C@@H](C)NC(=O)CN)CSSC[C@H](C(=O)N[C@H](C)C(=O)N[C@H](C)C(N)=O)NC(=O)[C@@H](CC(=O)O)NC(=O)[C@@H](Cc2c[nH]cn2)NC(=O)[C@@H](Cc2c[nH]c3ccccc23)NC(=O)[C@@H](Cc2c[nH]cn2)NC(=O)[C@@H](Cc2ccccc2)NC(=O)[C@@H](CC(C)C)NC(=O)[C@@H](CC(=O)O)NC(=O)[C@@H](Cc2c[nH]cn2)NC1=O` [CX10C-119] (H-G[dA][dC][dK][dI][dH][dD][dL][dF][dH][dW][dH][dD][dC][dA][dA]-NH2; disulfide 3-14): 100 µM.
With `CSCC[C@@H](NC(=O)[C@@H](CO)NC(=O)CNC(=O)[C@@H](CC(=O)O)NC(=O)[C@@H](CC(=O)O)NC(=O)CCOCCOCCOCCOCCOCCOCCNC(=O)[C@@H](CCCCN)NC(C)=O)C(=O)N[C@@H]1CSSC[C@H](C(=O)NCC(=O)N[C@@H](C(N)=O)[C@H](C)O)NC(=O)[C@@H](Cc2c[nH]c3ccccc23)NC(=O)[C@@H](CC(=O)O)NC(=O)[C@@H](CC(C)C)NC(=O)[C@@H](CC(C)C)NC(=O)[C@@H](Cc2c[nH]c3ccccc23)NC(=O)[C@@H](CCC(=O)O)NC(=O)[C@H]2CCCN2C(=O)[C@@H](CCCNC(=N)N)NC(=O)[C@@H](CC(N)=O)NC(=O)[C@@H](C(C)C)NC1=O` [Ac-K(PEG6)DDG-RSVP24] (Ac-[dK][PEG6][dD][dD]G[dS][dM][dC][dV][dN][dR][dP][dE][dW][dL][dL][dD][dW][dC]G[dT]-NH2; disulfide 8-19), the figures for the Kd in assay [1] (setting [5]) and in assay [2] (setting [4]) were 1.8 µM and 2.1 µM, respectively.
`CC(C)C[C@H]1NC(=O)[C@@H](CC(=O)O)NC(=O)[C@@H](Cc2c[nH]c3ccccc23)NC(=O)[C@@H]([C@H](C)O)NC(=O)[C@@H](Cc2c[nH]cn2)NC(=O)[C@H](NC(=O)[C@@H](C)NC(=O)CN)CSSC[C@H](C(=O)N[C@H](C)C(=O)N[C@H](C)C(=O)NCC(=O)N[C@H](CCCCN)C(N)=O)NC(=O)[C@@H](C(C)C)NC(=O)[C@@H](CC(=O)O)NC(=O)[C@@H](CC(C)C)NC(=O)[C@@H](Cc2c[nH]cn2)NC(=O)[C@@H](CC(N)=O)NC1=O` [CX10C-86-GK] (H-G[dA][dC][dH][dT][dW][dD][dL][dN][dH][dL][dD][dV][dC][dA][dA]G[dK]-NH2; disulfide 3-14): in assay [1] (setting [5]), binding was characterised by a dissociation constant (Kd) of 350 µM.
Still for that read-out and setting: the same measure for `CSCC[C@@H](NC(=O)[C@@H](Cc1c[nH]c2ccccc12)NC(=O)[C@@H](Cc1c[nH]c2ccccc12)NC(=O)[C@@H](Cc1ccc(O)cc1)NC(=O)[C@@H](CCCCN)NC(=O)[C@@H](CC(C)C)NC(=O)[C@H](N)CO)C(=O)N[C@H](CCC(=O)O)C(=O)N[C@H](CCC(=O)O)C(=O)N[C@H](CC(C)C)C(=O)N1CCC[C@@H]1C(=O)N[C@H](CC(C)C)C(=O)N1CCC[C@@H]1C(=O)N[C@H](CCCCN)C(=O)N[C@H](Cc1c[nH]c2ccccc12)C(=O)N[C@H](Cc1c[nH]c2ccccc12)C(N)=O` [X16-18] (H-[dS][dL][dK][dY][dW][dW][dM][dE][dE][dL][dP][dL][dP][dK][dW][dW]-NH2): 16 µM.
In assay [1] (setting [5]), `CSCC[C@@H](NC(=O)[C@@H](Cc1c[nH]c2ccccc12)NC(=O)[C@@H](Cc1c[nH]c2ccccc12)NC(=O)[C@@H](Cc1ccc(O)cc1)NC(=O)[C@@H](CCCCN)NC(=O)[C@@H](CC(C)C)NC(=O)[C@H](N)CO)C(=O)N[C@H](CCC(=O)O)C(=O)N[C@H](CCC(=O)O)C(=O)N[C@H](CC(C)C)C(=O)N1CCC[C@@H]1C(=O)N[C@H](CC(C)C)C(=O)N1CCC[C@@H]1C(=O)N[C@H](CCCCN)C(=O)N[C@H](Cc1c[nH]c2ccccc12)C(=O)N[C@H](Cc1c[nH]c2ccccc12)C(=O)NCC(=O)NCC(N)=O` [X16-18-GG] (H-[dS][dL][dK][dY][dW][dW][dM][dE][dE][dL][dP][dL][dP][dK][dW][dW]GG-NH2) registered a Kd of 24 µM.
As to “I: [dK]G[dR][dW][dF][dE][dL][dP][dE][dP][dE][dW][dW]G[PEG6][dK]G[dK]G-NH2 / II: [dK]G[dR][dW][dF][dE][dL][dP][dE][dP][dE][dW][dW]G[PEG6] / III: [dK]G[dR][dW][dF][dE][dL][dP][dE][dP][dE][dW][dW]G[PEG6] (amide I:16-II:C, I:18-III:C) [KG-RSVP7-G(PEG6)-Tricasso]”, the Kd in assay [2] (setting [4]) was around 0.02 µM.
